# Measurements reported in article PMC8007111, “Novel Potent Muscarinic Receptor Antagonists: Investigation on the Nature of Lipophilic Substituents in the 5- and/or 6-Positions of the 1,4-Dioxane Nucleus” (Journal of Medicinal Chemistry, 2020).
# Key:
# hM2 mAChR = molecular target: T1, hM2 mAChR (Homo sapiens, UniProt P08172); test: [3H]NMS inhibition radioligand binding, hM2 in CHO-K1 cell membranes; conditions: [3H]NMS, CHO-K1 cell membranes; mean ± S.E.M.
# T1 construct: expressed in transfected cells; host or cells: CHO-K1 (membrane preparation)
# T1 sequence (P08172 1-466): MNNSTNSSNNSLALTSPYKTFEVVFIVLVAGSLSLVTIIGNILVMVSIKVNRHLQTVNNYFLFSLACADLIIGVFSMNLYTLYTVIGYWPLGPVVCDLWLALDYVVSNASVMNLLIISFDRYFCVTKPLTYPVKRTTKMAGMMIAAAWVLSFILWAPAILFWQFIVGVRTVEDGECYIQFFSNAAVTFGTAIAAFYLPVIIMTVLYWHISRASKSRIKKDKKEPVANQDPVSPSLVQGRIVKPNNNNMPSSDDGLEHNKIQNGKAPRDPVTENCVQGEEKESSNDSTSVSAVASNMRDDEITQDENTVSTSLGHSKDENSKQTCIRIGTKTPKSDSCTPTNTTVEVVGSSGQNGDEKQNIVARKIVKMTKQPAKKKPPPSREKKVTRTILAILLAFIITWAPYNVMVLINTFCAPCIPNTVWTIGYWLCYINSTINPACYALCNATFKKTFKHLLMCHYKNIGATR
# hM3 mAChR = molecular target: T2, hM3 mAChR (Homo sapiens, UniProt P20309); test: [3H]NMS inhibition radioligand binding, hM3 in CHO-K1 cell membranes
# T2 construct: expressed in transfected cells; host or cells: CHO-K1 (membrane preparation)
# T2 sequence (P20309 whole entry): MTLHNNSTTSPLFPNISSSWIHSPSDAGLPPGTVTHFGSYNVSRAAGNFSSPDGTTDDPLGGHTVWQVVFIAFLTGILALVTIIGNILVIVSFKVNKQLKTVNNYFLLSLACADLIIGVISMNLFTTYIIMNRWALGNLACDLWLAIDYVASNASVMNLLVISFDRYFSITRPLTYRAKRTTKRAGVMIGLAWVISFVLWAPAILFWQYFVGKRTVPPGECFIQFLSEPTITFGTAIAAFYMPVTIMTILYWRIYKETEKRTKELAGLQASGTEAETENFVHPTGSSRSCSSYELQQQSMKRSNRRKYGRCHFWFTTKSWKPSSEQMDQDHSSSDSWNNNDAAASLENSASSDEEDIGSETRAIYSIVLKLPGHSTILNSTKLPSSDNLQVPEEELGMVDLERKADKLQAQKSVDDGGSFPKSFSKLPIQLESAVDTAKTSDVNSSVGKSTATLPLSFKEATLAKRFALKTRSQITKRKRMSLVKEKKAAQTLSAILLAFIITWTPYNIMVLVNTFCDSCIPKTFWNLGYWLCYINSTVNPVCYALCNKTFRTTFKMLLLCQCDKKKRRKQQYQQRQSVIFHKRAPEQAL
# hM4 mAChR = molecular target: T3, hM4 mAChR (Homo sapiens, UniProt P08173); test: [3H]NMS inhibition radioligand binding, hM4 in CHO-K1 cell membranes; conditions: [3H]NMS, CHO-K1 cell membranes; mean ± S.E.M.
# T3 construct: expressed in transfected cells; host or cells: CHO-K1 (membrane preparation)
# T3 sequence (P08173 1-479): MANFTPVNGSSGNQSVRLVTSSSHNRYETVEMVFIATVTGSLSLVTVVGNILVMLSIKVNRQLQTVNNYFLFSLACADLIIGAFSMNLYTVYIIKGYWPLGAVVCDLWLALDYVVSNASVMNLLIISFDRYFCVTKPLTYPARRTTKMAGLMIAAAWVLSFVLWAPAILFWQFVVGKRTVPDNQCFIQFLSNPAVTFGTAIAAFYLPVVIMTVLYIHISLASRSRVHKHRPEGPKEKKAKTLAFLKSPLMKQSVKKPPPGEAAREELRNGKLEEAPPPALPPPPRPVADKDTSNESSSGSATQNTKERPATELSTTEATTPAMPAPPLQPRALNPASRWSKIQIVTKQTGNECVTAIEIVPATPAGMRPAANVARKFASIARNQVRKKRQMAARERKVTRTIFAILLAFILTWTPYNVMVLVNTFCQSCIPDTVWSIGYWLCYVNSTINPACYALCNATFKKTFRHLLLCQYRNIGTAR
# hM1 mAChR = molecular target: T4, hM1 mAChR (Homo sapiens, UniProt P11229); test: [3H]NMS inhibition radioligand binding, hM1 in CHO-K1 cell membranes; conditions: [3H]NMS, CHO-K1 cell membranes; mean ± S.E.M.
# T4 construct: expressed in transfected cells; host or cells: CHO-K1 (membrane preparation)
# T4 sequence (P11229 1-460): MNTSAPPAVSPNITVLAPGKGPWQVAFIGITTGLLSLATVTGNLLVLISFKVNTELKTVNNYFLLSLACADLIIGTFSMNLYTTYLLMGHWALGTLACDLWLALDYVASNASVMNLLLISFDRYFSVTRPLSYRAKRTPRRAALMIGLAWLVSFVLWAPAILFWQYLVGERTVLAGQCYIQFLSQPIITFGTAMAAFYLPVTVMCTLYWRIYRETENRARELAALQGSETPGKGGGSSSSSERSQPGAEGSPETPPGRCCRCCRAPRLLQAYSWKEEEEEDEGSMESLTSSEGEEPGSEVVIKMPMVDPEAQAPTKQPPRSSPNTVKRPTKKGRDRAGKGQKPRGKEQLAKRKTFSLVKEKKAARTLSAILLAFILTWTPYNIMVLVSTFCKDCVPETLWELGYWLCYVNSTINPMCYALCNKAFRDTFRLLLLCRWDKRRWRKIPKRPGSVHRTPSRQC
compound,measurement,setting,value
"C[N+](C)(C)C[C@@H]1COC[C@](c2ccccc2)(C2CCCCC2)O1.[I-] (relative stereo) [3b, 1-((2R*,6R*)-6-Cyclohexyl-6-phenyl-1,4-dioxan-2-yl)-N,N,N-trimethylmethanaminium Iodide]",pKi hM2,hM2 mAChR,7.91 ± 0.13
same,pKi hM3,"hM3 mAChR; [3H]NMS, CHO-K1 cell membranes, mean ± S.E.M.",9.07 ± 0.03
same,M3/M2 selectivity ratio,hM3 mAChR; from binding affinities at hM3 and hM2,14.5
same,pKi hM4,hM4 mAChR,9.03 ± 0.16
same,pKi hM1,hM1 mAChR,9.28 ± 0.19
